The values that follow are results of earlier work, collected in patent US8410056B2, “Pro-oxidant anti-cancer compounds” (priority 2006, dated 2013).

One data set relates to B16(F10). Particulars: B16(F10); He et al, 1997; cited from earlier work.
The test system of data set [1] is neoplastic + SA mammary epithelial cells. Particulars: cited from earlier work.
Another data set relates to MDA-MB-435. Particulars: cited from earlier work.
Another data set deals with MCF7. Particulars: cited from earlier work.
Another data set concerns LNCaP, PC-3. As to conditions: Shiau et al, 2006; cited from earlier work.
Data set [2] has as its system Jurkat, HVT11, MCF7, MCF7-C3, U937, Meso-2. As to conditions: cited from earlier work.

Take `CC(C)=CCC/C(C)=C/CC/C(C)=C/CC[C@]1(C)CCc2cc(O)c(C)c(C)c2O1` [Compound 56, γ-tocotrienol]: the half-inhibitory concentration (IC50) was 20 µM with B16(F10) and 4 µM in data set [1].
Consider `CC(C)=CCC/C(C)=C/CC/C(C)=C/CC[C@]1(C)CCc2c(C)c(O)c(C)c(C)c2O1` [Compound 53, α-tocotrienol], for which the figures for the IC50 in the data set on MDA-MB-435, in the data set on B16(F10) and in the data set with MCF7 were 210 µM, 110 µM and 14 µM, respectively.
Turning to `Cc1c(C)c2c(c(C)c1OC(=O)CCC(=O)O)CCC(C)(C)O2` [Compound 46], in the data set with LNCaP, PC-3, the IC50 is greater than 100 µM.
On to `Cc1cc(OC(=O)CCC(=O)O)c(C)c2c1OC(C)(CCCC(C)CCCC(C)CCCC(C)C)CC2` (stereo not shown) [Compound 32], for which the “IC50, relative to α-TOS” value in data set [2] is given as 50% of α-TOS.
